According to US20250243488A1, “METHODS OF MODULATING PROGRANULIN EXPRESSION USING ANTISENSE OLIGONUCLEOTIDES TARGETING REGULATORY RNAS” (Camp4 Therapeutics Corporation, priority 2022, published 2025):
Oligonucleotides are written 5' to 3', each unit as a sugar letter and its base; * is a phosphorothioate linkage, no mark a phosphodiester; rarer units and linkages stand in square brackets, end groups in braces. Plain capitals give the bases only. e = 2'-O-(2-methoxyethyl) (MOE); l = locked nucleic acid (LNA); [5mC] = 5-methylcytosine

Tests used:
mGrn mRNA = mGrn mRNA qPCR in Neuro2a cells transfected with ASOs; assay type: cell-based, mouse; details: for mGRN mRNA FC: Table 14, 100 nM, 48 hours, normalized to sNTC3; for 40 nM FC (mGrn mRNA) / 80 nM FC (mGrn mRNA) / 160 nM FC (mGrn mRNA): transfection
Procedure: 57 ASOs targeting the Grn promoter (− strand) were screened in Neuro2a cells. Neuro2a cells were transfected with 100 nM of each of the ASOs listed in Table 14 and cells were harvested 48 hours later for Grn mRNA quantification using qPCR. Housekeeping genes for normalization were Gapdh and Ppia. Relative Grn mRNA levels were normalized to mRNA extracted from cells treated with sNTC3 (steric nontargeting control).
Next, 26 ASOs based on parent ASOs CO-3544 and CO-3595 were designed with different modifications and base walking. Neuro2a cells were transfected with either […] or 160 nM of each of the ASOs listed in Table 15, and cells were harvested 48 hours later for mGrn mRNA quantification using qPCR. As controls, cells were treated with sNTC3 or no ASO. Housekeeping genes for normalization were Gapdh and Ppia. Relative Grn mRNA levels were normalized to mRNA extracted from cells treated with sNTC3.
CO-3544 was modified to include PO/PS bonds and the efficacy in upregulating mGrn mRNA was determined.
Similarly, CO-3595 was modified to include varying PO/PS internucleotide bonds and the efficacy of these ASOs in upregulating mGrn mRNA was determined in Neuro2A cells.

GRN mRNA = GRN mRNA qPCR in SK-N-AS cells transfected with ASOs; assay type: cell-based, human; details: SK-N-AS; for hGRN mRNA FC / 120 nM FC (GRN mRNA): 120 nM
Outline: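 Fold change in GRN mRNA, by qPCR with GAPDH/PPIA housekeeping normalization, referenced to steric non-targeting control ASO(s) such as CO-1589. ASOs were transfected into SK-N-AS neuroblastoma cells in dose titrations (20 to 160 nM initially). Cells were harvested 48 hours post-transfection.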

[1] = Table 9, 48 hours post-transfection, normalized to CO-1589
[2] = Table 11, 48 hours, normalized to CO-1589
[3] = Table 3, normalized to CO-3772 and CO-1589 (sNTC1)
[4] = Table 6, normalized to CO-3772, CO-1589 and CO-1929
[5] = Table 4, normalized to CO-3772 and CO-1589 (sNTC1)
[6] = Table 10, 48 hours, normalized to CO-1589

## CO-3565: ASO targeting the Grn promoter (− strand) (antisense eG*eA*eG*e[5mC]*eT*eG*eA*e[5mC]*e[5mC]*eG*e[5mC]*e[5mC]*eA*eG*eA*eT*eG*e[5mC]*e[5mC]*eT)
mGrn mRNA; Neuro2a
  mGRN mRNA FC: 1.6 FC

## CO-3555: ASO targeting the Grn promoter (− strand) (antisense e[5mC]*eT*e[5mC]*eT*eT*eG*eT*e[5mC]*e[5mC]*eG*eT*eA*e[5mC]*eT*eT*e[5mC]*e[5mC]*e[5mC]*eA*e[5mC])
mGrn mRNA; Neuro2a
  mGRN mRNA FC: 1.5 FC

## CO-5306: CO-3595 modified to include varying PO/PS internucleotide bonds (antisense e[5mC]*e[5mC]*eT*eG*eA*eA*e[5mC]*eT*eGeTeAeTeGeGe[5mC]eTeG*eA*e[5mC]*e[5mC])
mGrn mRNA; Table 16, Neuro2A
  40 nM FC (mGrn mRNA): 1.2 FC
  80 nM FC (mGrn mRNA): 1.0 FC
  160 nM FC (mGrn mRNA): 1.3 FC

## CO-3575: ASO targeting the Grn promoter (− strand) (antisense eG*eT*eA*eA*eA*e[5mC]*eG*eA*e[5mC]*e[5mC]*eT*eT*eG*eA*eA*e[5mC]*eG*e[5mC]*eG*eT)
mGrn mRNA; Neuro2a
  mGRN mRNA FC: 1.2 FC

## CO-3597: ASO targeting the Grn promoter (− strand) (antisense eA*e[5mC]*eA*eA*e[5mC]*e[5mC]*e[5mC]*eT*eG*e[5mC]*eA*eT*eG*e[5mC]*eA*e[5mC]*eT*e[5mC]*e[5mC]*eT)
mGrn mRNA; Neuro2a
  mGRN mRNA FC: 1.2 FC

## CO-3557: ASO targeting the Grn promoter (− strand) (antisense eT*eG*eT*e[5mC]*eG*eG*eA*eA*eA*eG*e[5mC]*eT*eG*e[5mC]*eA*eG*eG*e[5mC]*e[5mC]*eT)
mGrn mRNA; Neuro2a
  mGRN mRNA FC: 1.6 FC

## CO-3563: ASO targeting the Grn promoter (− strand) (antisense eG*e[5mC]*eA*eG*eA*e[5mC]*eA*eA*eT*e[5mC]*eT*e[5mC]*e[5mC]*e[5mC]*e[5mC]*eG*eG*e[5mC]*eT*eA)
mGrn mRNA; Neuro2a
  mGRN mRNA FC: 1.5 FC

## CO-5310: CO-3595 modified to include varying PO/PS internucleotide bonds (antisense e[5mC]*e[5mC]*eTeGeAeAe[5mC]eTeGeTeAeTeGeG*e[5mC]*eT*eG*eA*e[5mC]*e[5mC])
mGrn mRNA; Table 16, Neuro2A
  40 nM FC (mGrn mRNA): 1.1 FC
  80 nM FC (mGrn mRNA): 1.1 FC
  160 nM FC (mGrn mRNA): 1.3 FC

## CO-5302: CO-3544 modified to include PO/PS bonds (antisense lG*lT*eT*l[5mC]*eT*l[5mC]*e[5mC]*l[5mC]*eT*lA*eG*l[5mC]*eT*lG*eT*lG*lT*eA*lG*lT)
mGrn mRNA; Table 15, Neuro2a
  40 nM FC (mGrn mRNA): 1.3 FC
  80 nM FC (mGrn mRNA): 1.2 FC
  160 nM FC (mGrn mRNA): 1.0 FC

## CO-3587: ASO targeting the Grn promoter (− strand) (antisense eT*eA*e[5mC]*e[5mC]*e[5mC]*eA*eA*eG*eG*eA*eA*eA*eG*eG*eA*eT*eT*e[5mC]*eA*e[5mC])
mGrn mRNA; Neuro2a
  mGRN mRNA FC: 1.9 FC

## CO-3567: ASO targeting the Grn promoter (− strand) (antisense e[5mC]*e[5mC]*e[5mC]*eT*eG*eG*eA*eT*e[5mC]*eT*e[5mC]*e[5mC]*eG*eA*eG*e[5mC]*eA*eA*eT*eG)
mGrn mRNA; Neuro2a
  mGRN mRNA FC: 1.1 FC

## CO-3579: ASO targeting the Grn promoter (− strand) (antisense eG*eA*e[5mC]*eT*eA*eT*eT*eT*eA*eT*e[5mC]*eT*eT*e[5mC]*eA*e[5mC]*e[5mC]*e[5mC]*eT*e[5mC])
mGrn mRNA; Neuro2a
  mGRN mRNA FC: 1.2 FC

## CO-5291: CO-3544 modified to include PO/PS bonds (antisense eG*eT*eT*e[5mC]*eTe[5mC]e[5mC]e[5mC]eTeAeGe[5mC]eTeGeTeGeT*eA*eG*eT)
mGrn mRNA; Table 15, Neuro2a
  40 nM FC (mGrn mRNA): 0.9 FC
  80 nM FC (mGrn mRNA): 1.0 FC
  160 nM FC (mGrn mRNA): 0.9 FC

## CO-5294: CO-3544 modified to include PO/PS bonds (antisense eG*eT*eT*e[5mC]*eT*e[5mC]*e[5mC]*e[5mC]*eT*eA*eGe[5mC]eTeGeTeGeT*eA*eG*eT)
mGrn mRNA; Table 15, Neuro2a
  40 nM FC (mGrn mRNA): 1.1 FC
  80 nM FC (mGrn mRNA): 1.1 FC
  160 nM FC (mGrn mRNA): 1.3 FC

## CO-3583: ASO targeting the Grn promoter (− strand) (antisense eT*e[5mC]*e[5mC]*e[5mC]*e[5mC]*e[5mC]*e[5mC]*eA*eG*eT*eT*eT*eG*eA*eG*e[5mC]*e[5mC]*eA*eA*eT)
mGrn mRNA; Neuro2a
  mGRN mRNA FC: 1.2 FC

## CO-5312: CO-3595 modified to include varying PO/PS internucleotide bonds (antisense e[5mC]*e[5mC]*eTeGeAeAe[5mC]eTeGeT*eA*eT*eG*eG*e[5mC]*eT*eG*eA*e[5mC]*e[5mC])
mGrn mRNA; Table 16, Neuro2A
  40 nM FC (mGrn mRNA): 1.5 FC
  80 nM FC (mGrn mRNA): 1.7 FC
  160 nM FC (mGrn mRNA): 1.8 FC

## CO-3552: ASO targeting the Grn promoter (− strand) (antisense e[5mC]*e[5mC]*eT*eT*eG*eG*e[5mC]*e[5mC]*e[5mC]*e[5mC]*e[5mC]*eA*eG*eA*eG*e[5mC]*eT*e[5mC]*eA*eA)
mGrn mRNA; Neuro2a
  mGRN mRNA FC: 1.1 FC

## CO-4635: ASO designed to target intergenic enhancers (eRNA) (antisense eG*eT*eT*eT*eG*e[5mC]*eA*eA*eT*eT*e[5mC]*eT*e[5mC]*eA*eG*eA*e[5mC]*e[5mC]*eT*eG)
GRN mRNA; [1]
  hGRN mRNA FC: 1.0 FC

## CO-6430: ASO designed to target an intragenic enhancer RNA (eRNA) (eT*eG*e[5mC]*eG*e[5mC]*eA*e[5mC]*eA*e[5mC]*eA*eG*eG*eT*eA*e[5mC]*e[5mC]*eA*eG*eA*eG)
GRN mRNA; [2]
  hGRN mRNA FC: 1.0 FC

## CO-6432: ASO designed to target an intragenic enhancer RNA (eRNA) (eG*eA*eG*eA*eA*e[5mC]*eG*e[5mC]*eT*eA*e[5mC]*e[5mC]*eA*e[5mC]*eG*eG*eA*e[5mC]*e[5mC]*eT)
GRN mRNA; [2]
  hGRN mRNA FC: 1.0 FC

## CO-4607: ASO designed to target intergenic enhancers (eRNA) (antisense eA*eA*eG*eA*eA*eA*eT*eA*eG*eA*eT*eT*eA*e[5mC]*e[5mC]*e[5mC]*e[5mC]*eG*eT*eT)
GRN mRNA; [1]
  hGRN mRNA FC: 1.1 FC

## CO-4356: LNA/PS modified ASO based on CO-3423 (antisense eG*eG*lA*e[5mC]*eT*lT*eG*eG*lG*eA*eG*lT*eG*eG*lT*eG*eA*l[5mC]*eT*eG)
GRN mRNA; [3]
  30 nM FC (GRN mRNA): 1.6 FC
  60 nM FC (GRN mRNA): 1.8 FC
  120 nM FC (GRN mRNA): 2.2 FC

## CO-4634: ASO designed to target intergenic enhancers (eRNA) (antisense eT*eT*eT*eA*e[5mC]*e[5mC]*e[5mC]*eA*eT*eA*eT*eA*e[5mC]*e[5mC]*e[5mC]*eA*e[5mC]*eA*e[5mC]*e[5mC])
GRN mRNA; [1]
  hGRN mRNA FC: 1.1 FC

## CO-4455: mixed PO/PS bond version of CO-3431 (antisense eA*eT*eTeGe[5mC]*eA*eG*eT*eG*eA*e[5mC]*eG*e[5mC]*e[5mC]*e[5mC]*e[5mC]eGeT*eT*eA)
GRN mRNA; [4]
  30 nM FC (GRN mRNA): 0.5 FC
  60 nM FC (GRN mRNA): 0.4 FC
  120 nM FC (GRN mRNA): 0.4 FC

## CO-4630: ASO designed to target intergenic enhancers (eRNA) (antisense eG*eT*e[5mC]*eT*eT*e[5mC]*eA*eA*eG*eA*eA*e[5mC]*eT*eT*eT*eA*e[5mC]*e[5mC]*eG*eA)
GRN mRNA; [1]
  hGRN mRNA FC: 1.0 FC

## CO-4124: GRN paRNA-targeting ASO; longer ASO related to CO-3423 (antisense eG*eA*e[5mC]*eT*eT*eG*eG*eG*eA*eG*eT*eG*eG*eT*eG*eA*e[5mC]*eT*eG*eA)
GRN mRNA; [5]
  30 nM FC (GRN mRNA): 1.2 FC
  60 nM FC (GRN mRNA): 1.7 FC
  120 nM FC (GRN mRNA): 1.7 FC
GRN mRNA; [1]
  hGRN mRNA FC: 1.3 FC
GRN mRNA; Table 10, 3.75 nM, 48 hours, normalized to CO-1589
  3.75 nM FC (GRN mRNA): 1.0 FC
GRN mRNA; Table 10, 7.5 nM, 48 hours, normalized to CO-1589
  7.5 nM FC (GRN mRNA): 1.0 FC
GRN mRNA; Table 10, 15 nM, 48 hours, normalized to CO-1589
  15 nM FC (GRN mRNA): 1.0 FC
GRN mRNA; [6]
  30 nM FC (GRN mRNA): 1.2 FC
  60 nM FC (GRN mRNA): 1.4 FC
  120 nM FC (GRN mRNA): 1.9 FC
